We go through one compound from US20220265657A1, “ADMINISTRATION METHOD AND DOSAGE REGIMEN FOR TREATMENT OF NEURODEGENERATIVE DISEASES USING TRAMETINIB AND MARKERS” (GENUV INC., priority 2019, published 2022).

In one experiment the test system is MEK1/2. In words: Western blot of pERKs and ERKs in whole brain lysates of normal mice. The class given is in vivo. Conditions: 0.1 mg/kg/day oral. As for the experimental part: (§1) Trametinib treatment: Trametinib (Medchemexpress, Monmouth Junction, N.J.) was micronized and suspended in the vehicle containing 5% mannitol, 1.5% hydroxypropyl methylcellulose and 0.2% sodium lauryl sulfate. For pharmacokinetic analysis, 0.05, 0.2 and 0.8 mg/kg of trametinib were orally administered to 7-week-old normal mice (ICR, n=5 per group) as a single administration. […] For studies on the change in pERK expression in normal mice and whole cell RNA sequencing study, 0.1 mg/kg/day of trametinib (in 4% DMSO+96% corn oil) was orally administered to 6-week old C57BL/6 mice (n=3 per group). Mice were sacrificed after 1, 2, 3, or 4 weeks of administration. 5XFAD mice (male, n=7˜10 per group) were divided into vehicle and trametinib treated groups. 12-month old mice received vehicle or 0.1 mg/kg of trametinib for 1 month by oral gavage once a day (These mice are referred to as “13-month old 5XFAD mice” in the Examples). […] Blood was obtained after completion of treatment.
Lysates were centrifuged at 13,000 rpm for 20 min at 4° C., and the protein content in the supernatant was determined using the Bradford assay (Bio-rad, Hercules, Calif.). For subcellular fractionation, cells were lysed with lysis buffer (250 mM Sucrose, 20 mM HEPES, pH 7.4, 10 mM KCl, 1.5 mM MgCl2, 1 mM EGTA, 1 mM EDTA, 1 mM DTT) containing protease inhibitor for 30 min on ice, followed by centrifugation at 720 g for 5 min at 4° C. Supernatants were centrifuged at 15,000 rpm for 10 min at 4° C., and the resulting supernatant was used as the cytosol fraction. After centrifugation at 720 g for 5 min, pellets were washed with lysis buffer and dissolved in nuclear lysis buffer (50 mM Tris HCl, pH 8.0, 150 mM NaCl, 1% NP40, 0.5% sodium deoxycholate, 0.1% SDS, 10% glycerol) as the nuclear fraction. Protein from each sample was subjected to 8%˜15% SDS-PAGE, and the resolved proteins were transferred to nitrocellulose or polyvinylidene fluoride membrane. The membranes were blocked with 5% nonfat milk powder in Tris-buffered saline/Tween 20 (TBST) for 1 h at room temperature, then incubated with anti-phospho-ERK (Cell signaling), anti-ERK (Cell signaling), anti-LAMP1 (Abcam), anti-LC3 (Cell signaling), anti-cathepsin B (Cell signaling), anti-p62 (Cell signaling), anti-p62 (5114, Cell signaling), anti-phospho-mTOR (5536, Cell signaling), anti-mTOR (2983, Cell signaling), anti-phospho-ULK1 (14202, Cell signaling), anti-ULK1 (8054, Cell signaling), anti-TFEB (852501, Biolegend), and anti-GAPDH (Cell signaling) overnight at 4° C. After washing, membranes were incubated with horseradish peroxidase-conjugated goat anti-rabbit IgG antibody (Thermo) or goat anti-rat IgG antibody (Thermo) for 2 h at room temperature. […] The detected signals were quantified using a LAS-4000 system (Fuji Film, Tokyo, Japan).
A general note: In western blotting, separated proteins are transferred to a membrane and probed.

The subject of experiment [1] is 5XFAD mice. In words: LTP recording (EPSCs) at hippocampal CA1 region. Conditions: 8-month old 5XFAD mice, oral administration. In kind it is in vivo.
For experiment [2], the system named is 5XFAD mice. In words: Western blot of brain cortex lysates. The class given is in vivo. How it is done:
as §1
Lysates were centrifuged at 13,000 rpm for 20 min at 4° C., and the protein content in the supernatant was determined using the Bradford assay (Bio-rad, Hercules, Calif.). For subcellular fractionation, cells were lysed with lysis buffer (250 mM Sucrose, 20 mM HEPES, pH 7.4, 10 mM KCl, 1.5 mM MgCl2, 1 mM EGTA, 1 mM EDTA, 1 mM DTT) containing protease inhibitor for 30 min on ice, followed by centrifugation at 720 g for 5 min at 4° C. Supernatants were centrifuged at 15,000 rpm for 10 min at 4° C., and the resulting supernatant was used as the cytosol fraction. After centrifugation at 720 g for 5 min, pellets were washed with lysis buffer and dissolved in nuclear lysis buffer (50 mM Tris HCl, pH 8.0, 150 mM NaCl, 1% NP40, 0.5% sodium deoxycholate, 0.1% SDS, 10% glycerol) as the nuclear fraction. Protein from each sample was subjected to 8%˜15% SDS-PAGE, and the resolved proteins were transferred to nitrocellulose or polyvinylidene fluoride membrane. […] The detected signals were quantified using a LAS-4000 system (Fuji Film, Tokyo, Japan).

The subject of another experiment is primary cortical neurons. Briefly: Western blot of primary cortical neurons. The class given is cell-based, ICR mice. As for the experimental part:
Lysates were centrifuged at 13,000 rpm for 20 min at 4° C., and the protein content in the supernatant was determined using the Bradford assay (Bio-rad, Hercules, Calif.). For subcellular fractionation, cells were lysed with lysis buffer (250 mM Sucrose, 20 mM HEPES, pH 7.4, 10 mM KCl, 1.5 mM MgCl2, 1 mM EGTA, 1 mM EDTA, 1 mM DTT) containing protease inhibitor for 30 min on ice, followed by centrifugation at 720 g for 5 min at 4° C. Supernatants were centrifuged at 15,000 rpm for 10 min at 4° C., and the resulting supernatant was used as the cytosol fraction. After centrifugation at 720 g for 5 min, pellets were washed with lysis buffer and dissolved in nuclear lysis buffer (50 mM Tris HCl, pH 8.0, 150 mM NaCl, 1% NP40, 0.5% sodium deoxycholate, 0.1% SDS, 10% glycerol) as the nuclear fraction. Protein from each sample was subjected to 8%˜15% SDS-PAGE, and the resolved proteins were transferred to nitrocellulose or polyvinylidene fluoride membrane. The membranes were blocked with 5% nonfat milk powder in Tris-buffered saline/Tween 20 (TBST) for 1 h at room temperature, then incubated with anti-phospho-ERK (Cell signaling), anti-ERK (Cell signaling), anti-LAMP1 (Abcam), anti-LC3 (Cell signaling), anti-cathepsin B (Cell signaling), anti-p62 (Cell signaling), anti-p62 (5114, Cell signaling), anti-phospho-mTOR (5536, Cell signaling), anti-mTOR (2983, Cell signaling), anti-phospho-ULK1 (14202, Cell signaling), anti-ULK1 (8054, Cell signaling), anti-TFEB (852501, Biolegend), and anti-GAPDH (Cell signaling) overnight at 4° C.

Experiment [3] deals with neurons and neural stem cells (NSCs). The conditions noted are these: in vitro, even in the presence of cytotoxic oligomers of Aβ1-42; cited from earlier work.

Consider `CC(=O)Nc1cccc(-n2c(=O)n(C3CC3)c(=O)c3c(Nc4ccc(I)cc4F)n(C)c(=O)c(C)c32)c1` [trametinib], for which the “decrease of p-ERKs/ERKs ratio compared to vehicle treated group” value with MEK1/2 (1 week administration) is listed as 22.5%; with MEK1/2 (2 week administration), 33.7%; in the experiment on MEK1/2 (3 week administration), 50%; in the experiment on MEK1/2 (4 week administration), 45.6%. Also, the “long-term potentiation (LTP), EPSC slope” value with 5XFAD mice [1] is listed as “recovered in the trametinib-orally administered animals to a level almost comparable to that of the wild type control”. Moreover, the “autophagosome marker LC3-II level” value in the experiment with 5XFAD mice [2] (8-month old 5XFAD mice brain) was “further increased”. Also, in the experiment on 5XFAD mice [2] (8-month old 5XFAD mice brain), the “level of mature cathepsin B” value is given as “seen to increase”. Moreover, in the experiment with 5XFAD mice [2] (brain cortex lysates of 5XFAD mice), the “expression of presynaptic marker synaptophysin and postsynaptic marker PSD-95” value was “Increased expression”. Moreover, in the experiment on primary cortical neurons (100 nM, co-treated with Aβ1-42), the “decrease of p-mTOR/mTOR ratio compared to Aβ1-42 treated alone group” value came out at 67%. Besides, in the experiment on primary cortical neurons (co-treated with Aβ1-42), the “decrease of pULK1(S757) to total ULK1 ratio compared to Aβ1-42 treated alone neurons” value came out at 29%. Further, the “increase of mature cathepsin B level compared to vehicle treated control (CTL)” value with primary cortical neurons (primary cortical neurons) turned out to be 54%. Besides, the “increase of mature cathepsin B level compared to Aβ1-42 treated alone group” value in the experiment with primary cortical neurons (primary cortical neurons treated with Aβ1-42 oligomers) was determined as 73%. In addition, in experiment [3], the “neuronal differentiation and survival of neurons and NSCs” value was “effective in inducing neuronal differentiation and promoting survival of neurons and neural stem cells (NSCs)”.
